For experiment [1], the system named is fatty Zucker rat. As to the kind of experiment: Acute oral glucose tolerance test (OGTT) in the fatty Zucker rat. The class given is in vivo. The settings on record: acute administration (over a period of 1 day).
Experiment [2] deals with obese patients. The following applies: chronic treatment, e.g. over a period of 1 year; cited from earlier work.
In experiment [3] the test system is Kir6.2/SUR1 KATP channel. Briefly: Opening of the Kir6.2/SUR1 KATP channel. Format: biochemical.

Take `Cc1c(C(=O)NN2CCCCC2)nn(-c2ccc(Cl)cc2Cl)c1-c1ccc(Cl)cc1` [5-(4-chlorophenyl)-1-(2,4-dichlorophenyl)-4-methyl-N-piperidin-1-yl-1H-pyrazole-3-carboxamide]: in experiment [1], the “glucose plasma levels in OGTT” value is given as “strong increase in glucose plasma levels” and the “insulin release in OGTT” value is “significantly reduced inhibition of insulin release”. In addition, the “glucose tolerance and insulin resistance in obese patients” value in experiment [2] is “improve glucose tolerance and insulin resistance”. The “opener activity at the Kir6.2/SUR1 KATP channel” value in experiment [3] is “potent opener”.

Values taken from patent US8058264B2, “Pharmaceutical compositions comprising CB1 cannabinoid receptor antagonists and potassium channel openers for the treatment of obesity and related conditions” (Abbott Products GmbH, priority 2004, dated 2011).
